# In US10561638B2, “Methods for treating dependence” (Biotie Therapies, Inc., priority 2007, dated 2020):
# “Also recorded” adds a separate entry of the source.
# How the values were obtained:
# [1] = in vivo
# Method: The pharmacokinetics of nepicastat after a single 40 mg dose was compared in men and women.
# [2] = tested on: tissue noradrenaline and dopamine content; assay: Tissue catecholamines in SHRs after three oral doses 12 h apart; type: in vivo, spontaneously hypertensive rats; settings: for increase in DA/NE ratio / nepicastat compared with SKF-102698, catecholamine changes: 30 mg/kg; for maximal increase in DA/NE ratio: 100 mg/kg; for decrease in noradrenaline / increase in dopamine: 100 mg/kg po x3
# Method: Male SHRs (15-16 weeks old, Charles River, Wilmington, Mass., USA) were used in in vivo studies. On the day of the study, animals were weighed and randomly assigned to be dosed with either vehicle (control) or the appropriate dose of nepicastat (3, 10, 30 or 100 mg·kg^−1, po) or Compound B (30 mg·kg^−1, po) three consecutive times, twelve hours apart. At six hours after the third dose, the rats were anaesthetized with halothane, decapitated and tissues (cerebral cortex, mesenteric artery and left ventricle) were rapidly harvested, weighed, placed in iced perchloric acid (0.4 M), frozen in liquid nitrogen and stored at −70° C. until subsequent analysis. To quantify noradrenaline and dopamine concentrations, tissues were homogenized by brief sonication and centrifuged at 13,000 rpm for 30 minutes at 4° C. The supernatant, spiked with 3,4-dihydroxybenzylamine (internal standard), was assayed for noradrenaline and dopamine by HPLC using electrochemical detection.
# Nepicastat was used in in vivo biochemical studies to study the effects in spontaneously hypertensive rats (SHRs) and normal beagle dogs. On the day of the study, the animals were weighed and randomly assigned to receive either placebo (vehicle) or the appropriate dose of nepicastat. Each rat was dosed orally three times, 12 h apart, beginning in the morning. At 6 h after the third dose, the rats were anesthetized with halothane, decapitated, and the tissues (cerebral cortex, mesenteric artery and left ventricle) were rapidly harvested, weighed, placed in iced 0.4 M perchloric acid, frozen in liquid nitrogen and stored at −70° C. until analysis. Tissue NE and DA concentrations were assayed by HPLC using electrochemical detection. Male beagle dogs (10-16 kg, Marshall Farms USA Inc, North Rose, N.Y.) were used in the study. On the day of the study, dogs were randomly assigned to receive either placebo (empty capsule) or the appropriate dose of nepicastat. Each dog was dosed twice a day for 4.5 days. 6 h after the first dose on day 5, the dogs were euthanized with pentobarbital and the tissues (cerebral cortex. renal artery, left ventricle) harvested, weighed, placed in iced 0.4 M perchloric acid, frozen in liquid nitrogen and stored at −70° C. until analysis. Tissue NE and DA concentrations were assayed by HPLC using electrochemical detection.
# Fifteen to sixteen week old male spontaneously hypertensive rats (SHRs) (Charles River Labs) were allowed food and water ad libitum. Animals were weighed and randomly assigned to one of the following treatment groups: 1) distilled water vehicle (dH2O), or nepicastat at 3, 10, 30, and 100 mg/kg, 2) Compound B at 30 mg/kg in distilled water, or 3) PEG 400:dH2O vehicle or SKF-102698 at 30 mg/kg. Each rat was dosed orally (p.o., using a gavage needle) three times 12 hours apart, beginning in the morning. At six hours after the third dose rats were anesthetized with halothane, decapitated, and the cortex, mesenteric artery, and left ventricle were rapidly harvested, weighed, placed in iced 0.4 M perchioric acid, frozen in liquid nitrogen, and stored at −70° C. Tissue dopamine and norepinephrine concentrations were assayed by high performance liquid chromatography and electrochemical detection.
# Four series of statistical analyses were performed. The first series compared the rats treated with various doses of nepicastat, and Compound B at 30 mg/kg to the vehicle control animals. A nonparametric one-way analysis of variance (ANOVA) with factor Dose and blocking factor Day was performed for each tissue and strain separately. […] Pairwise analysis between treated and controls at each dose were carried out using Dunnett's test to control the experiment-wise error rate. The second statistical test compared SKF-102698 to the PEG-dH2O vehicle treated group using a nonparametric t-test. The third statistical test compared Compound B to nepicastat at doses of 30 mg/kg using a nonparametric t-test.
# [3] = tested on: left ventricle norepinephrine and dopamine levels; assay: Left ventricle catecholamines after two i.v. doses; type: in vivo, Sprague-Dawley rats; settings: 15 mg/kg iv x2, left ventricle
# Method: The purpose of this study was to determine the effects of intravenous administration of nepicastat (hereafter referred to as nepicastat) on the levels of dopamine and norepinephrine in the left ventricle in Sprague-Dawley rats. Animals received two intravenous (iv) administrations, 12 hours apart, of either vehicle (75% propylene glycol+25% DMSO; 1.0 ml/kg) or 15 mg/kg of nepicastat. Tissue norepinephrine and dopamine levels were measured six hours after the last compound administration.
# Sixteen to 17 week old male Sprague-Dawley rats, weighing 300-400 grams, were allowed food and water ad libitum. Animals were weighed and randomly assigned, the afternoon before the study, to one of the following treatment groups (n=10 per group): vehicle (1.0 ml/kg) or nepicastat at 15 mg/kg.
# Each rat was dosed iv in the tail vein the afternoon before harvest. The dosing was repeated 12 hours later the following morning. Six hours after the final administration rats were anesthetized with halothane, decapitated, and the left ventricle was rapidly harvested and weighed. The ventricle was placed in 1.0 ml iced 0.4 M perchloric acid. Tissues were immediately frozen in liquid nitrogen and stored at −70° C. Tissue dopamine and norepinephrine concentrations were assayed by high performance liquid chromatography using electrochemical detection.
# A one-way analysis of variance (ANOVA) with a main effect for treatment was performed for norepinephrine. A Kruskal-Wallis was performed for dopamine and their ratio primarily due to heterogeneous variances among treatment groups. Subsequent pairwise comparisons between nepicastat treated rats and vehicle were performed using Fisher's LSD test. A Bonferroni adjustment was performed on all p-values to ensure an overall experiment-wise type 1 error rate of 5%.
# [4] = cerebral cortex, 30 and 100 mg/kg
# [5] = left ventricle and mesenteric artery
# [6] = left ventricle, 3, 10, 30 and 100 mg/kg
compound,measurement,setting,value
"Cl.NCc1c[nH]c(=S)n1[C@H]1CCc2c(F)cc(F)cc2C1 [nepicastat, (S)-5-Aminomethyl-1-(5,7-difluoro-1,2,3,4-tetrahydronaphth-2-yl)-2,3-dihydro-2-thioxo-1H-imidazole hydrochloride]","AUC, greater in women than in men","[1]; both, human, 40 mg",approximately 43%
same,"Cmax, greater in women than in men","[1]; both, human, 40 mg",approximately 23%
same,Tmax for the radioactivity in plasma,[1]; human,1 to 2 h
same,terminal T1/2 for total radioactivity in plasma,[1]; human,~100 h
same,"Cmax or AUC, fast vs slow acetylator phenotype",[1],No significant differences
same,"T½, women vs men",[1],longer in women than in men
same,accumulation with multiple dosing,[1],no significant accumulation
same,"nepicastat compared with the R-enantiomer (Compound B), catecholamine changes","[2]; 30 mg/kg po x3, mesenteric artery and/or left ventricle, hydrochloride",significantly greater changes in catecholamine content; also recorded: significantly more potent then the R enantiomer; also recorded: significantly more effective (p<0.01) than Compound B
same,increase in DA/NE ratio,[2]; cerebral cortex,1.5 fold
same,"norepinephrine levels, nepicastat compared to Compound B","[2]; cerebral cortex, 30 mg/kg x3",significantly lower
same,"nepicastat compared with SKF-102698, catecholamine changes","[2]; cerebral cortex, hydrochloride",significantly less effects than SKF-102698; also recorded: greater for SKF-102698 than for nepicastat; also recorded: less effective in the cerebral cortex
same,maximal increase in DA/NE ratio,[2]; cerebral cortex,3.2 fold
same,decrease in noradrenaline,[2]; cerebral cortex,42%
same,increase in dopamine,[2]; cerebral cortex,86%
same,dopamine concentration vs vehicle,[2]; [4],significantly (p<0.05) greater
same,dopamine/norepinephrine ratio vs vehicle,[2]; [4],significantly (p<0.05) greater
same,norepinephrine concentration vs vehicle,[2]; [4],significantly (p<0.05) lower
same,dose for significant decrease in norepinephrine,[2]; [5],10 mg/kg
same,dose for significant increase in dopamine,[2]; [5],3.0 mg/kg
same,dose for significant increase in dopamine/norepinephrine ratio,[2]; [5],3.0 mg/kg
same,"nepicastat compared with SKF-102698, catecholamine changes","[2]; left ventricle and/or mesenteric artery, hydrochloride",significantly more potent than the DBH inhibitor SKF-102698; also recorded: greater for nepicastat than for SKF-102698; also recorded: more effective than SKF-102698
same,increase in DA/NE ratio,[2]; left ventricle,7.5 fold
same,maximal increase in DA/NE ratio,[2]; left ventricle,11 fold
same,decrease in noradrenaline,[2]; left ventricle,35%
same,increase in dopamine,[2]; left ventricle,800%
same,dopamine concentration vs vehicle,[2]; [6],significantly (p<0.05) greater than vehicle
same,dopamine/norepinephrine ratio vs vehicle,[2]; [6],significantly (p<0.05) greater than vehicle
same,norepinephrine concentration vs vehicle,"[2]; left ventricle, 10, 30 and 100 mg/kg",significantly (p<0.05) lower than vehicle
same,doses at which catecholamine changes attained significance (p<0.05),[2]; mesenteric artery and left ventricle,≥ 3 mg/kg
same,increase in DA/NE ratio,[2]; mesenteric artery,8.3 fold
same,maximal increase in DA/NE ratio,[2]; mesenteric artery,14 fold
same,decrease in noradrenaline,[2]; mesenteric artery,47%
same,increase in dopamine,[2]; mesenteric artery,820%
same,dopamine concentration vs vehicle,"[2]; mesenteric artery, 3, 10, 30 and 100 mg/kg",significantly (p<0.05) greater than vehicle
same,norepinephrine concentration vs vehicle,"[2]; mesenteric artery, 10, 30 and 100 mg/kg",not significantly less (p>0.05)
same,dopamine/norepinephrine ratio vs vehicle,"[2]; mesenteric artery, all doses",significantly (p<0.05) greater than vehicle
same,decrease in norepinephrine levels,[3],51%
same,increase in dopamine levels,[3],472%
same,increase in dopamine/norepinephrine ratio,[3],1117%
"Fc1cc(F)cc(Cn2cc[nH]c2=S)c1 [SKF-102698, reference compound]",increase in DA/NE ratio,[2]; cerebral cortex,2.7 fold
same,dopamine vs vehicle,"[2]; cerebral cortex, 30 mg/kg x3",significantly greater (p<0.01) than vehicle
same,dopamine/norepinephrine ratio vs vehicle,"[2]; cerebral cortex, 30 mg/kg x3",significantly (p<0.01) greater than vehicle
same,norepinephrine vs vehicle,"[2]; cerebral cortex, 30 mg/kg x3",significantly lower than vehicle
same,increase in DA/NE ratio,[2]; left ventricle,3.5 fold
same,dopamine vs vehicle,"[2]; left ventricle, 30 mg/kg x3",significantly greater (p<0.01) than vehicle
same,dopamine/norepinephrine ratio vs vehicle,"[2]; left ventricle, 30 mg/kg x3",significantly (p<0.05) greater than vehicle
same,norepinephrine vs vehicle,"[2]; left ventricle, 30 mg/kg x3",not different from vehicle
same,increase in DA/NE ratio,[2]; mesenteric artery,5.5 fold
same,dopamine vs vehicle,"[2]; mesenteric artery, 30 mg/kg x3",significantly greater than vehicle
same,dopamine/norepinephrine ratio vs vehicle,"[2]; mesenteric artery, 30 mg/kg x3",significantly greater than vehicle
same,norepinephrine vs vehicle,"[2]; mesenteric artery, 30 mg/kg x3",significantly lower than vehicle
